Measurements: patent US11904020B2, “Bicyclic peptide ligands specific for TREM2” (Bicycle Tx Limited, priority 2021, dated 2024)
Like-named read-outs stand apart in the source and are kept apart here. *1 amine or outer side, *2 acyl side, *3 side chain or, on linkers, in order; H or OH if unused. Where a SMILES comes first, the peptide text is derived from it. Bridges are numbered along the chain shown (N, C = ends). [ ]: non-standard residue; d: D form. TATA = O=C(CC[*:1])N1CN(C(=O)CC[*:2])CN(C(=O)CC[*:3])C1; Bip = N[C@@H](Cc1ccc(-c2ccccc2)cc1)C(=O)O; Phe(4-Me) = Cc1ccc(C[C@H](N)C(=O)O)cc1; 1Nal = N[C@@H](Cc1cccc2ccccc12)C(=O)O; 2Nal = N[C@@H](Cc1ccc2ccccc2c1)C(=O)O; hPhe = N[C@@H](CCc1ccccc1)C(=O)O; NMeA = CN[C@@H](C)C(=O)O

Experiments:
TREM2 receptor = molecular target: T1, TREM2 receptor (Homo sapiens, UniProt Q9NZC2); assay: pSYK Homogenous Time Resolved Fluorescence (HTRF) assay in iPSC macrophages; assay type: cell-based
T1 construct: Both parental (TREM2 expressing) and isogenic TREM2 KO iPSC macrophages were plated; endogenous in cells; host or cells: human iPSC-derived macrophages (parental, TREM2 expressing)
T1 sequence (Q9NZC2 19-230): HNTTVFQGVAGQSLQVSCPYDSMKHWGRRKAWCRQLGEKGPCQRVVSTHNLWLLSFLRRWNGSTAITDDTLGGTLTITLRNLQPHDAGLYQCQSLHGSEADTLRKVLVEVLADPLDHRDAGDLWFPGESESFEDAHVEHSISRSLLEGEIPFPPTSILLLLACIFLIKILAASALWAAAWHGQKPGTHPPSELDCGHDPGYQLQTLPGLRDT
Description: Quantitative assessment of total and phospho (Tyr 525/526) SYK was performed on iPSC macrophages using CisBio total and phospho-SYK HTRF kits (catalogue numbers 64SYKTPGG and 64SYKY525-PEG respectively). Human iPSC macrophage precursors derived from embryoid bodies were plated in 96 well plates (Perkin Elmer Cell Carrier ultra, black walled plates, #6055800) at a density of 40 k cells per well in 100 μl macrophage media (XVIVO15 (Lonza, #BE04-418F), 1% Penicillin-Streptomycin (Gibco, #15140-122), 1% GlutaMAX™ Supplement (Gibco, #35050-038), 0.1% M-CSF (Invitrogen, #PHC9501)). Cells were grown for 7 days to induce full differentiation to iPSC macrophages. Both parental (TREM2 expressing) and isogenic TREM2 KO iPSC macrophages were plated to test for specificity of peptide binding. Following differentiation, cells were stimulated for 5 mins with either the control TREM2 activating antibody (R&D systems, #AF1828), a human IgG control (R&D systems, #AB-108-C), or a 10 point CRC of bicyclic peptide (serial 2 fold dilutions from a starting concentration of 100 μM). Following stimulation the media was removed, and cells were lysed in 50 μl lysis buffer (supplied with the kit) per well. Cells were incubated in LB3 for 30 mins with shaking at room temperature. Following lysis, 16 μl of sample was removed and added to a white 384 well plate (ProxiPlate-384 Plus (Perkin Elmer, #6008280)) and 4 μl of pre-mixed antibody solution was added to each well of the plate. The plate was incubated overnight at room temperature, and the following day, […] was measured at 665 nm and 620 nm using a Pherastar FSX. The same cell lysate was used to assess total and phosphorylated SYK, to enable the generation of a ratio of phosphorylated SYK in each sample.

[1] = molecular target: TREM2 extracellular domain (ECD) (residues 19-131, C-terminally biotinylated, deglycosylated or glycosylated) (Homo sapiens, UniProt Q9NZC2); assay: biochemical
Description: Bio-layer interferometry was performed on an Octet RED384® system (Sartorius) at 25° C. in a buffer containing 50 mM HEPES (pH 7.5), 150 mM NaCl and 0.1% Tween. TREM2 extracellular domain (ECD) (residues 19-131, C-terminally biotinylated, deglycosylated or glycosylated) was loaded onto Superstreptavidin biosensors (SSA, 18-5070, Sartorius) at 0.0125 mg/ml for 300 s. Bicycle peptides (10 mM in DMSO) were dispensed into 384-Well Tilted-Bottom Plates (18-5076, Sartorius) using an Echo liquid handler giving a final DMSO concentration of 0.125% in all wells including control wells. Association of defined concentrations of bicyclic peptide (0-12.5 μM, 1:2 dilutions for 7 points) was recorded over 120 s followed by dissociation in buffer over 120 s. Reference wells containing no bicycle peptides and reference sensors loaded with an unrelated protein (His-tagged MLLT3a) were subjected to the same assay protocol and double reference subtraction was used for processing to account for non-specific binding. Traces were analysed using Octet Software (Version 11.0). Association and dissociation curves were globally fit and the response at equilibrium (Req) plotted against concentration to obtain steady-state KD values.

[2] = molecular target: TREM2 extracellular domain (ECD); assay: Bio-Layer Interferometry (BLI) direct binding assay, cyno
Description: Traces were analysed using Octet Software (Version 11.0).

[3] = human iPSC macrophages, 5 mins stimulation, phospho (Tyr 525/526) SYK, NB = no binding, read-out: pSYK
[4] = Human BLI (Kd; nM) (deglycosylated), Table 4A, deglycosylated human TREM2 ECD, steady-state KD, 25° C.

Structure (SMILES)	EC50 (TREM2 receptor; [3]) [µM]	Kd [1, 4] [nM]	other results
CC(=O)N[C@H]1CSCCC(=O)N2CN3CN(C2)C(=O)CCSC[C@H](NC(=O)[C@H](Cc2ccc(O)cc2)NC(=O)[C@H](CCC(=O)O)NC(=O)[C@H](CO)NC1=O)C(=O)N[C@@H](Cc1ccc(C)cc1)C(=O)N[C@@H](Cc1c[nH]c2ccccc12)C(=O)N1CCC[C@H]1C(=O)N[C@@H](Cc1ccccc1)C(=O)N[C@@H](Cc1ccc(O)cc1)C(=O)N[C@@H](C)C(=O)N[C@H](C(N)=O)CSCCC3=O [BCY19298, Ac-(SEQ ID NO: 30)] (Ac-CSEYC[Phe(4-Me)]WPFYAC-NH2; linker 1-5-12 via TATA; C-terminus assumed)	< 3.4	–	–
C[C@H](N)C(=O)N[C@H]1CSCCC(=O)N2CN3CN(C2)C(=O)CCSC[C@H](NC(=O)[C@H](Cc2ccc(O)cc2)NC(=O)[C@H](CCC(=O)O)NC(=O)[C@H](CO)NC1=O)C(=O)N[C@@H](Cc1ccccc1)C(=O)N[C@@H](Cc1c[nH]c2ccccc12)C(=O)N1CCC[C@H]1C(=O)N[C@@H](Cc1ccccc1)C(=O)N[C@@H](CCC(N)=O)C(=O)N[C@@H](Cc1ccc(O)cc1)C(=O)N[C@H](C(=O)N[C@@H](C)C(N)=O)CSCCC3=O [BCY19784, A-(SEQ ID NO: 23)-A] (H-ACSEYCFWPFQYCA-NH2; linker 2-6-13 via TATA)	1.8	–	–
C[C@H](N)C(=O)N[C@H]1CSCCC(=O)N2CN3CN(C2)C(=O)CCSC[C@H](NC(=O)[C@H](Cc2ccc(O)cc2)NC(=O)[C@H](CC(N)=O)NC(=O)[C@H]([C@@H](C)O)NC1=O)C(=O)N[C@@H](Cc1ccccc1)C(=O)N[C@@H](Cc1c[nH]c2ccccc12)C(=O)N1CCC[C@H]1C(=O)N[C@@H](Cc1ccccc1)C(=O)N[C@@H](CCC(N)=O)C(=O)N[C@@H](Cc1ccc(O)cc1)C(=O)N[C@H](C(=O)N[C@@H](C)C(N)=O)CSCCC3=O [BCY19779, A-(SEQ ID NO: 18)-A] (H-ACTNYCFWPFQYCA-NH2; linker 2-6-13 via TATA)	2.5	920	–
CC(=O)N[C@H]1CSCCC(=O)N2CN3CN(C2)C(=O)CCSC[C@H](NC(=O)[C@H](Cc2ccc(O)cc2)NC(=O)[C@H](CCC(=O)O)NC(=O)[C@H](CO)NC1=O)C(=O)N[C@@H](Cc1ccccc1)C(=O)N[C@@H](Cc1c[nH]c2ccccc12)C(=O)N1CCC[C@H]1C(=O)N[C@@H](CCc1ccccc1)C(=O)N[C@@H](Cc1ccc(O)cc1)C(=O)N[C@@H](C)C(=O)N[C@H](C(N)=O)CSCCC3=O [BCY19301, Ac-(SEQ ID NO: 35)] (Ac-CSEYCFWP[hPhe]YAC-NH2; linker 1-5-12 via TATA)	< 3.4	–	–
C[C@H](N)C(=O)N[C@H]1CSCCC(=O)N2CN3CN(C2)C(=O)CCSC[C@H](NC(=O)[C@H](Cc2ccc(O)cc2)NC(=O)[C@H](CCC(=O)O)NC(=O)[C@H](CO)NC1=O)C(=O)N[C@@H](Cc1ccccc1)C(=O)N[C@@H](Cc1c[nH]c2ccccc12)C(=O)N1CCC[C@H]1C(=O)N[C@@H](Cc1ccccc1)C(=O)N[C@@H](Cc1ccc(O)cc1)C(=O)N[C@@H](Cc1c[nH]cn1)C(=O)N[C@H](C(=O)N[C@@H](C)C(N)=O)CSCCC3=O [BCY16054, A-(SEQ ID NO: 1)-A] (H-ACSEYCFWPFYHCA-NH2; linker 2-6-13 via TATA; N-terminus and C-terminus assumed)	–	700	Kd ([2]; Table 4A): 3300 nM; EC50 (TREM2 receptor): 10.7 µM; Kd ([1]; KD, binding to the human TREM2 extracellular domain in the BLI assay, FIGS. 1A to 1D): ~700 nM
CC(=O)N[C@H]1CSCCC(=O)N2CN3CN(C2)C(=O)CCSC[C@H](NC(=O)[C@H](Cc2ccc(O)cc2)NC(=O)[C@H](CCC(=O)O)NC(=O)[C@H](CO)NC1=O)C(=O)N[C@@H](Cc1ccccc1)C(=O)N[C@@H](Cc1c[nH]c2ccccc12)C(=O)N1CCC[C@H]1C(=O)N[C@@H](Cc1cccc2ccccc12)C(=O)N[C@@H](Cc1ccc(O)cc1)C(=O)N[C@@H](C)C(=O)N[C@H](C(N)=O)CSCCC3=O [BCY20722, Ac-(SEQ ID NO: 46)] (Ac-CSEYCFWP[1Nal]YAC-NH2; linker 1-5-12 via TATA)	–	–	Kd ([2]; Table 4B): 3600 nM
CC(C)C[C@@H]1NC(=O)[C@H](Cc2ccc(O)cc2)NC(=O)[C@H](Cc2ccccc2)NC(=O)[C@@H]2CCCN2C(=O)[C@H](Cc2c[nH]c3ccccc23)NC(=O)[C@H](Cc2ccccc2)NC(=O)[C@@H]2CSCCC(=O)N3CN(CN(C3)C(=O)CCSC[C@@H](C(=O)N[C@@H](C)C(N)=O)NC1=O)C(=O)CCSC[C@H](NC(=O)[C@H](C)N)C(=O)N[C@@H]([C@@H](C)O)C(=O)N[C@@H](CC(N)=O)C(=O)N[C@@H](Cc1ccc(O)cc1)C(=O)N2 [BCY19782, A-(SEQ ID NO: 21)-A] (H-ACTNYCFWPFYLCA-NH2; linker 2-6-13 via TATA)	3.8	1400	–
CC(=O)N[C@H]1CSCCC(=O)N2CN3CN(C2)C(=O)CCSC[C@H](NC(=O)[C@H](Cc2ccc(O)cc2)NC(=O)[C@H](CCC(=O)O)NC(=O)[C@H](CO)NC1=O)C(=O)N[C@@H](Cc1ccccc1)C(=O)N[C@@H](Cc1cccc2ccccc12)C(=O)N1CCC[C@H]1C(=O)N[C@@H](Cc1ccccc1)C(=O)N[C@@H](Cc1ccc(O)cc1)C(=O)N[C@@H](C)C(=O)N[C@H](C(N)=O)CSCCC3=O [BCY19294, Ac-(SEQ ID NO: 32)] (Ac-CSEYCF[1Nal]PFYAC-NH2; linker 1-5-12 via TATA)	< 3.4	1500	–
CC(=O)N[C@H]1CSCCC(=O)N2CN3CN(C2)C(=O)CCSC[C@H](NC(=O)[C@H](Cc2ccc(O)cc2)NC(=O)[C@H](CCC(=O)O)NC(=O)[C@H](CO)NC1=O)C(=O)N[C@@H](Cc1ccccc1)C(=O)N[C@@H](Cc1c[nH]c2ccccc12)C(=O)N(C)[C@@H](C)C(=O)N[C@@H](Cc1ccccc1)C(=O)N[C@@H](Cc1ccc(O)cc1)C(=O)N[C@@H](C)C(=O)N[C@H](C(N)=O)CSCCC3=O [BCY19303, Ac-(SEQ ID NO: 34)] (Ac-CSEYCFW[NMeA]FYAC-NH2; linker 1-5-12 via TATA)	< 3.4	–	–
CC(=O)N[C@H]1CSCCC(=O)N2CN3CN(C2)C(=O)CCSC[C@H](NC(=O)[C@H](Cc2ccc(O)cc2)NC(=O)[C@H](CCC(=O)O)NC(=O)[C@H](CO)NC1=O)C(=O)N[C@@H](Cc1ccccc1)C(=O)N[C@@H](Cc1c[nH]c2ccccc12)C(=O)N1CCC[C@H]1C(=O)N[C@@H](Cc1ccc(C)cc1)C(=O)N[C@@H](Cc1ccc(O)cc1)C(=O)N[C@@H](C)C(=O)N[C@H](C(N)=O)CSCCC3=O [BCY19299, Ac-(SEQ ID NO: 36)] (Ac-CSEYCFWP[Phe(4-Me)]YAC-NH2; linker 1-5-12 via TATA; C-terminus assumed)	> 10	18000	–
CC(=O)N[C@H]1CSCCC(=O)N2CN3CN(C2)C(=O)CCSC[C@H](NC(=O)[C@H](Cc2ccc(O)cc2)NC(=O)[C@H](CCC(=O)O)NC(=O)[C@H](CO)NC1=O)C(=O)N[C@@H](Cc1ccccc1)C(=O)N[C@@H](Cc1ccc2ccccc2c1)C(=O)N1CCC[C@H]1C(=O)N[C@@H](Cc1ccccc1)C(=O)N[C@@H](Cc1ccc(O)cc1)C(=O)N[C@@H](C)C(=O)N[C@H](C(N)=O)CSCCC3=O [BCY19296, Ac-(SEQ ID NO: 33)] (Ac-CSEYCF[2Nal]PFYAC-NH2; linker 1-5-12 via TATA; C-terminus assumed)	< 3.4	2700	–
CC(=O)N[C@H]1CSCCC(=O)N2CN3CN(C2)C(=O)CCSC[C@H](NC(=O)[C@H](Cc2ccc(O)cc2)NC(=O)[C@H](CCC(=O)O)NC(=O)[C@H](CO)NC1=O)C(=O)N[C@@H](Cc1ccccc1)C(=O)N[C@@H](Cc1c[nH]c2ccccc12)C(=O)N1CCC[C@H]1C(=O)N[C@@H](Cc1ccc(-c2ccccc2)cc1)C(=O)N[C@@H](Cc1ccc(O)cc1)C(=O)N[C@@H](Cc1c[nH]cn1)C(=O)N[C@H](C(N)=O)CSCCC3=O [BCY20075, Ac-(SEQ ID NO: 71)] (Ac-CSEYCFWP[Bip]YHC-NH2; linker 1-5-12 via TATA)	–	–	Kd ([1]; Human BLI (Kd; nM) (deglycosylated), Table 4B, deglycosylated human TREM2 ECD, steady-state KD, 25° C.): 2400 nM
CC(=O)N[C@H]1CSCCC(=O)N2CN3CN(C2)C(=O)CCSC[C@H](NC(=O)[C@H](Cc2ccc(O)cc2)NC(=O)[C@H](CCC(=O)O)NC(=O)[C@H](CO)NC1=O)C(=O)N[C@@H](Cc1ccccc1)C(=O)N[C@@H](Cc1c[nH]c2ccccc12)C(=O)N1CCC[C@H]1C(=O)N[C@@H](Cc1ccccc1)C(=O)N[C@@H](Cc1c[nH]c2ccccc12)C(=O)N[C@@H](Cc1c[nH]cn1)C(=O)N[C@H](C(N)=O)CSCCC3=O [BCY20077, Ac-(SEQ ID NO: 73)] (Ac-CSEYCFWPFWHC-NH2; linker 1-5-12 via TATA)	–	–	Kd ([1]; Human BLI (Kd; nM) glycosylated, Table 4B, glycosylated human TREM2 ECD): 750 nM
